Test results taken from US20240294488A1, “ISOTOPOLOGES, SALTS, CRYSTALLINE FORMS, STEREOISOMERS, OF METHYLONE AND ETHYLONE AND METHODS OF USE THEREOF” (Terran Biosciences Inc., priority 2021, published 2024).
Structures can show the parent of a compound that is named as a salt.

What was measured:
[1] = Dynamic vapor sorption (DVS); format: physicochemical
Method: The sample for moisture analysis was allowed to dry at 25° C. for up to 4 hours under a stream of dry nitrogen. The relative humidity is then increased stepwise from 10 to 90% relative humidity (adsorption scan) allowing the sample to equilibrate for a maximum of four hours before weighing and moving on to the next step. The desorption scan is measured from 85 to 0% relative humidity with the same equilibration time. The sample is then dried under a stream of dry nitrogen at 80° C. for 2 hours or until no weight loss is observed.
DVS analysis was carried out using a TA Instruments Q5000 Dynamic Vapor Sorption analyzer. The instrument was calibrated with standard weights and a sodium bromide standard for humidity. Approximately 10-25 mg of sample was loaded into a metal-coated quartz pan for analysis. The sample was analyzed at 25° C. with a maximum equilibration time of one hour in 10% relative humidity (RH) steps from 5 to 95% RH (adsorption cycle) and from 95 to 5% RH (desorption cycle). The movement from one step to the next occurred either after satisfying the equilibrium criterion of 0.01% weight change or, if the equilibrium criterion was not met, after one hour. The percent weight change values were calculated.

[2] = Solubility screen of methylone hydrochloride in solvents; format: physicochemical; details: thermodynamic from solid, visual
Method: The experiments were carried out by adding the test solvent in aliquots to weighed portions of solid. Whether dissolution had occurred was judged by visual inspection after addition of each solvent aliquot. Solubility numbers recorded in Table 4 were calculated by dividing the weight of the sample by the total amount of solvent used to dissolve the sample. The actual solubilities may be greater than the numbers calculated because of the use of solvent aliquots that were too large or because of slow dissolution rates. All solubility measurements were carried out at room temperature unless noted otherwise.

CNC(C)C(=O)c1ccc2c(c1)OCO2 (racemic) [(rac)-Methylone Hydrochloride, 3,4-methylenedioxy-N-methylcathinone hydrochloride]
relative humidity above which water uptake occurs ([1]; DVS, FIG. 26): above 75 % RH | physical stability after moisture sorption-desorption analysis ([1]; between 5% RH and 95% RH): physically stable | water gain ([1]; between 5% RH and 95% RH): 0.33% | water loss ([1]; between 95% RH and 5% RH): 0.15% | appearance after humidity exposure ([1]; exposed to 75% RH for 2 hours): became tacky and stuck to the vial | solubility ([2]; acetonitrile, organic solvent or mixture, ACN, room temperature): < 1000 µg/mL | solubility ([2]; chloroform, organic solvent or mixture, CHCl3, room temperature): < 1000 µg/mL | solubility ([2]; ethanol, organic solvent or mixture, EtOH, room temperature): 8000 µg/mL | solubility ([2]; ethyl acetate (wet), organic solvent or mixture, EtOAc (wet), room temperature): 9000 µg/mL | solubility ([2]; methanol, organic solvent or mixture, MeOH, room temperature): 48000 µg/mL | solubility ([2]; methanol/chloroform 50/50, organic solvent or mixture, MeOH/CHCl3 50/50, room temperature): 45000 µg/mL | solubility ([2]; organic solvent or mixture, Acetone, room temperature): < 1000 µg/mL | solubility ([2]; organic solvent or mixture, DMF, room temperature): 5000 µg/mL | solubility ([2]; organic solvent or mixture, THF, room temperature): < 1000 µg/mL | solubility ([2]; water, H2O, room temperature): 47000 µg/mL
